Measured values from US20240058347A1, “DOSAGES FOR HDAC TREATMENT WITH REDUCED SIDE EFFECTS” (VIRACTA THERAPEUTICS, INC., priority 2019, published 2024).

What was measured:
[1] = in vivo; cited from earlier work
[2] = 30 mg twice weekly; cited from earlier work
[3] = 1,000 mg/m^2 IV once daily on days 1 to 5 of a 21-day cycle; cited from earlier work
[4] = target: HDAC4 (Homo sapiens, UniProt P56524); assay: in vitro HDAC inhibition assay (fluorescence), HDAC4; type: biochemical; conditions: read-out: Percentage Inhibition
Description: (§1) Briefly, all of the compounds are dissolved in DMSO. A series of dilutions of the compounds were prepared with 10% DMSO in HDAC assay buffer and 5 μl of the dilution was added to a 50 μl reaction so that the final concentration of DMSO is 1% in all of reactions. The compounds were pre-incubated in duplicate at RT for 1 hour in a mixture containing HDAC assay buffer, 5 μg BSA, HDAC enzyme (see Table 7) and a the particular HDACi. After 1 hour, the enzymatic reactions were initiated by the addition of HDAC substrate (BPS Bioscience) to a final concentration of 10 μM or 2 μM. The enzymatic reaction proceeded for 30 minutes at 37° C.
(§2) HDAC activity assays were performed in duplicates at each concentration. The fluorescent intensity data were analyzed using the computer software, Graphpad Prism. In the absence of the compound, the fluorescent intensity (Ft) in each data set was defined as 100% activity. In the absence of HDAC, the fluorescent intensity (Fb) in each data set was defined as 0% activity. The percent activity in the presence of each compound was calculated according to the following equation: % activity=(F−Fb)/(Ft−Fb), where F=the fluorescent intensity in the presence of the compound. […]

[5] = target: T1, HDAC7 (Homo sapiens, UniProt Q8WUI4); assay: in vitro HDAC inhibition assay (fluorescence), HDAC7; type: biochemical; conditions: read-out: Percentage Inhibition
T1 sequence (Q8WUI4 1-952): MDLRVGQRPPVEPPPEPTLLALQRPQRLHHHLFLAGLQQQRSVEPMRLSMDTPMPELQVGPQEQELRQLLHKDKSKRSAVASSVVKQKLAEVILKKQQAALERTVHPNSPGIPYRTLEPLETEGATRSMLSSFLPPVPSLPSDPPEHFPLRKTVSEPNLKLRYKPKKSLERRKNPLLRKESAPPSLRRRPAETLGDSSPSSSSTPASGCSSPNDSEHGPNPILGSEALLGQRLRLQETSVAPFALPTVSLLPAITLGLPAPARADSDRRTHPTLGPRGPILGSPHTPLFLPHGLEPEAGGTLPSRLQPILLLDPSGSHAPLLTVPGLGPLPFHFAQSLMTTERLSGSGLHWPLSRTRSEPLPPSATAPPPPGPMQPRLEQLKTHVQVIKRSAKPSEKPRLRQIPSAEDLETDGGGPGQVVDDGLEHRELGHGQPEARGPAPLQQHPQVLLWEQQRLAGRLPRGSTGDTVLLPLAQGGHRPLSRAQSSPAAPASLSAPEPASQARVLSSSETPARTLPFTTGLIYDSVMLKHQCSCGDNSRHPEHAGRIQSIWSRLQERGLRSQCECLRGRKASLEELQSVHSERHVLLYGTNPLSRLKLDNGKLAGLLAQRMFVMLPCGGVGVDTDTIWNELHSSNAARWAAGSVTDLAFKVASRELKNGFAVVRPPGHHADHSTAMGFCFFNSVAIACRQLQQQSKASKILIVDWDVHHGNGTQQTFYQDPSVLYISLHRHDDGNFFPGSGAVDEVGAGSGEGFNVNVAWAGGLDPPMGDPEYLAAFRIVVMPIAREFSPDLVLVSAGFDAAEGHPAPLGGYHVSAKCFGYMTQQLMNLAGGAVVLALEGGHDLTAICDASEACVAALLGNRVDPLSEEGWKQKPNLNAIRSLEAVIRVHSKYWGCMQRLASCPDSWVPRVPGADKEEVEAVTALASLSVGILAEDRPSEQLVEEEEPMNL
Description: as §1, §2

[6] = target: HDAC9 (Homo sapiens, UniProt Q9UKV0); assay: in vitro HDAC inhibition assay (fluorescence), HDAC9; type: biochemical; conditions: read-out: Percentage Inhibition
Description: as §1, §2

[7] = target: T2, HDAC11 (Homo sapiens, UniProt Q96DB2); assay: in vitro HDAC inhibition assay (fluorescence), HDAC11; type: biochemical; conditions: read-out: Percentage Inhibition
T2 sequence (Q96DB2 1-347): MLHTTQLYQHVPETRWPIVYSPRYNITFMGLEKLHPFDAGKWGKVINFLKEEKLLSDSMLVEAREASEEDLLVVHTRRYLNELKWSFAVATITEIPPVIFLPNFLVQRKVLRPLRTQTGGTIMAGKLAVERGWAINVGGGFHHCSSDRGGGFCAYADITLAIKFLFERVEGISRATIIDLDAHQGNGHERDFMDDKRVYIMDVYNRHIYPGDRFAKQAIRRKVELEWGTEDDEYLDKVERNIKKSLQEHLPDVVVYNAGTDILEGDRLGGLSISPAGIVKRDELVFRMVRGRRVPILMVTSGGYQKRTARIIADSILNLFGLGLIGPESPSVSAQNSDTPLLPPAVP
Description: as §1, §2

Sequence of HDAC9 (Q9UKV0 whole entry): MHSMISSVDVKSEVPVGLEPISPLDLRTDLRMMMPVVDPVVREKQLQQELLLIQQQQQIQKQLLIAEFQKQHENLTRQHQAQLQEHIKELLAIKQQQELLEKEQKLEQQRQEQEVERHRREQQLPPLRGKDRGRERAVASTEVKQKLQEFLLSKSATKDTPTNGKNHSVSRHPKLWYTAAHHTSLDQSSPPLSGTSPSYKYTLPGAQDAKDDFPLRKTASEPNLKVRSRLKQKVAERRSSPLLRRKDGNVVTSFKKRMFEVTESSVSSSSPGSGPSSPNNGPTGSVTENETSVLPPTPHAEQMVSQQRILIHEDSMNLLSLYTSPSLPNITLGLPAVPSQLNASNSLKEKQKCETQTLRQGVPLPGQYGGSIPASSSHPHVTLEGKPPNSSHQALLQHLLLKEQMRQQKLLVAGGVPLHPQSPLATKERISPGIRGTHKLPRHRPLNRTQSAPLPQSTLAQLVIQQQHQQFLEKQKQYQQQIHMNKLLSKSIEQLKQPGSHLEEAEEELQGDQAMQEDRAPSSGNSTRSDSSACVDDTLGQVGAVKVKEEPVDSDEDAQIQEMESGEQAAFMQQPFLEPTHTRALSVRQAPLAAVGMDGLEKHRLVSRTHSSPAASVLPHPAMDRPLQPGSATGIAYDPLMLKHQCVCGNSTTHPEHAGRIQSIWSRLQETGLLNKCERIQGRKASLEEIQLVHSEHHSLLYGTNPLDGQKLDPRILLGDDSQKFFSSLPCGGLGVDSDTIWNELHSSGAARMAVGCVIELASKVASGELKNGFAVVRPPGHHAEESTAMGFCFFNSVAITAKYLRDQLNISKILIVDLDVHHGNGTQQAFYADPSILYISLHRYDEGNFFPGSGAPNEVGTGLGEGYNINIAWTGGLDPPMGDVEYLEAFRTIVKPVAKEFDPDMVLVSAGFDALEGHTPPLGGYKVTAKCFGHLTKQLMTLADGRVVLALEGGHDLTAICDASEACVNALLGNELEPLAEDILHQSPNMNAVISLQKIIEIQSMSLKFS
Sequence of HDAC4 (P56524 whole entry): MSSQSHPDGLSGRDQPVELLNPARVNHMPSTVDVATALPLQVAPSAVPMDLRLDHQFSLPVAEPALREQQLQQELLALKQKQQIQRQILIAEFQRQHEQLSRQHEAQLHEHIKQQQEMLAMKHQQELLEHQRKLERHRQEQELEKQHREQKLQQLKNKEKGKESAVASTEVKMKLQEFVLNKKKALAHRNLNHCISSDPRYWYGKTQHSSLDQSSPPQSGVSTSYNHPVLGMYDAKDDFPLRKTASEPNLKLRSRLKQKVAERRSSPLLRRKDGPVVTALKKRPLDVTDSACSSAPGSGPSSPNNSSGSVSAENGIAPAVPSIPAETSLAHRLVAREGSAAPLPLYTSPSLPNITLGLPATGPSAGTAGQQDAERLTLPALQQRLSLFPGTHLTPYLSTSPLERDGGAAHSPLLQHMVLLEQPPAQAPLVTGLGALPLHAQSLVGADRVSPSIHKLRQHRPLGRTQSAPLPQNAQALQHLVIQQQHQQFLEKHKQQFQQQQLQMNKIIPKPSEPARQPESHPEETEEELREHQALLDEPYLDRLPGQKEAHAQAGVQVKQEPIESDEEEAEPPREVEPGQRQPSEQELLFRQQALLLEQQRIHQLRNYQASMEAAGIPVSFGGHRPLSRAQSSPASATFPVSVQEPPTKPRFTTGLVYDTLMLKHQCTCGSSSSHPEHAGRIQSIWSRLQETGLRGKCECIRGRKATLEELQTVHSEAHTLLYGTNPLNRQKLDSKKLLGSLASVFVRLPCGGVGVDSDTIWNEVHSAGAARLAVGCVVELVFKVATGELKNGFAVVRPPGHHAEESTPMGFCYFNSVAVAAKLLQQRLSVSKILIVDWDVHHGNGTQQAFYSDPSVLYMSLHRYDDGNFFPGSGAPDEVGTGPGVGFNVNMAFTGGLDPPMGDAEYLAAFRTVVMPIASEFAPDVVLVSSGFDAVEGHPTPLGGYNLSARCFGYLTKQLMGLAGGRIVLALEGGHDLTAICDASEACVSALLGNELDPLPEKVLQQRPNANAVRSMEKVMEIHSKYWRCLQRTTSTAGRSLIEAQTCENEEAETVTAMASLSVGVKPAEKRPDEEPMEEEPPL

Structure (SMILES): Nc1ccccc1NC(=O)c1ccc(CNC(=O)OCc2cccnc2)cc1 [MS-275, entinostat]
- elimination half-life [1]: approximately 36 hours

Structure (SMILES): Nc1cc(F)ccc1NC(=O)c1ccc(CNC(=O)/C=C/c2cccnc2)cc1 [Chidamide, chidamide]
- SAE rate [2]: 5%

Structure (SMILES): O=C(/C=C/c1cccc(S(=O)(=O)Nc2ccccc2)c1)NO [belinostat]
- Grade 3 or 4 adverse effect rate [3]: 47%

Structure (SMILES): C/C=C1\NC(=O)[C@H]2CSSCC/C=C/[C@H](CC(=O)N[C@H](C(C)C)C(=O)N2)OC(=O)[C@H](C(C)C)NC1=O [FK228, romidepsin, reference compound]
- inhibition at 100 µM [4]: < 17%
- inhibition at 100 µM [5]: < 17%
- inhibition at 100 µM [6]: < 17%
- inhibition at 100 µM [7]: < 17%
